# Data reported in patent publication US4593090A, “Novel nitrosourea compounds, method for preparing same, and pharmaceutical composition containing same” (Gogo Kimura, priority 1981, dated 1986).
# Columns and labels:
# [1] = Acute toxicity (LD50, Behrens-Karber method); assay type: in vivo, ICR mice; settings: mouse, in vivo, ip, mortality during 30 days
# Protocol: Test compounds, dissolved or suspended in 0.5% aqueous CMC, were each intraperitoneally administered to ICR mice in a dose of 0.1 ml per 10 g body weight. LD50 (mg/kg) value of each test compound was calculated from the mortality of mice during 30 days by the Behrens-Karber method.
# Leukemia L1210 [2] = assay: Activity against Leukemia L1210, oral, increase in life span of mice; assay type: in vivo, female mice (BDF1 family); settings: for ED (maximum ILS) / ED30: Mus musculus, L1210, oral once a day for 5 successive days; for ED (maximum ILS): daily dosage giving maximum increase of life span, read-out: O.D. (optimum dosage); for ED30: daily dosage increasing average survival days by 30%, read-out: ILS30; for Survivors after 60 days / Max. ILS % / Therapeutic ratio TR: oral; for Survivors after 60 days: 6-membered group; for Max. ILS %: 60-day observation, versus control; for Therapeutic ratio TR: O.D./ILS30
# Protocol: Tests were conducted in accordance with the method for measuring antitumor activity of National Cancer Center Tokyo (A, Hoshi et al, Farumashia 9 464 (1973)). Test compounds were each intraperitoneally (referred to as ip) or orally (referred to as op) administered once a day for 5 successive days to a 6-membered group of femal mice (BDF1 family, each weighing 20 to 23 g) 24 hours after 1×10^5 cells of Leukemia L1210 have been implantated into the abdominal cavities of the mice, and the effect was evaluated by comparing the survival days of treated groups with those of an untreated group of mice (control group) in 60-day observation. An increase percentage of life span (ILS%) was calculated from said average survival days compared with those of the control group. Further, therapeutic ratio (O.D./ILD30, referred to as T.R.) of each tested compound was calculated from the daily dosage of the compound necessary to increase said average survival days by 30% as compared with the control group (this dosage is referred to as ILS 30) and the daily dosage giving a maximum increase of life span to mice implantated with L1210 cells, namely an optimum dosage (referred to as O.D.). The results of five successive days intraperitoneal administrations of test compounds were shown in Tables I to III, and those of five successive oral administrations in Table IV.
# Leukemia L1210 [3] = assay: Activity against Leukemia L1210, intraperitoneal, increase in life span of mice; assay type: in vivo, female mice (BDF1 family); settings: for ED (maximum ILS) / ED30: Mus musculus, L1210, ip, ip once a day for 5 successive days; for ED (maximum ILS): daily dosage giving maximum increase of life span, read-out: O.D. (optimum dosage); for ED30: daily dosage increasing average survival days by 30%, read-out: ILS30; for Survivors after 60 days / Max. ILS % / Therapeutic ratio TR: ip; for Survivors after 60 days: 6-membered group; for Max. ILS %: 60-day observation, versus control; for Therapeutic ratio TR: O.D./ILS30
# Summary of the method: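 Female BDF1 mice (20 to 23 g, 6 per group) implanted ip with 1×10^5 L1210 cells; test compound given ip or orally once daily for 5 days starting 24 h later. ILS% from mean survival days vs untreated controls over 60 days; T.R. = O.D./ILS30.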
Structure (SMILES),LD50 at 720 h [1] [mg/kg],ED (maximum ILS) (Leukemia L1210 [2]) [mg/kg],ED30 (Leukemia L1210 [2]) [mg/kg],Survivors after 60 days (Leukemia L1210 [2]),Max. ILS % (Leukemia L1210 [2]) [%],Therapeutic ratio TR (Leukemia L1210 [2]),ED (maximum ILS) (Leukemia L1210 [3]) [mg/kg],ED30 (Leukemia L1210 [3]) [mg/kg],Survivors after 60 days (Leukemia L1210 [3]),Max. ILS % (Leukemia L1210 [3]) [%],Therapeutic ratio TR (Leukemia L1210 [3])
"COCCCO[C@@H]1O[C@H](CN(CC(C)C)C(=O)N(CCCl)N=O)[C@@H](O)[C@H]1O [Compound 167, 3-isobutyl-3-(3-methoxy-n-propyl β-D-ribofuranose-5-yl)-1-(2-chloroethyl)-1-nitrosourea]",510,180,12,4/6,> 450,15.0,160,3.17,4/6,> 430,50.5
"CC(C)CN(C[C@@H]1O[C@@H](OC2CCCCC2)[C@H](O)[C@@H]1O)C(=O)N(CCCl)N=O [Compound 171, 3-isobutyl-3-(cyclohexyl α-L-lyxofuranose-5-yl)-1-(2-chloroethyl)-1-nitrosourea]",450,190,11.7,4/6,> 450,16.2,150,3.3,4/6,> 440,45.5
"COCCCO[C@H]1O[C@H](CN(C(=O)N(CCCl)N=O)C2CCCCC2)[C@@H](O)[C@H](O)[C@H]1O [Compound 174, 3-cyclohexyl-3-(3-methoxy-n-propyl α-D-glucopyranose-6-yl)-1-(2-chloroethyl)-1-nitrosourea]",610,230,9.66,5/6,> 620,23.8,180,2.78,6/6,> 700,64.8
"CC(C)CO[C@H]1O[C@H](CN(CC(C)(C)C)C(=O)N(CCCl)N=O)[C@@H](O)[C@H](O)[C@H]1O [Compound 183, 3-neopentyl-3-(isobutyl α-D-glucopyranose-6-yl)-1-(2-chloroethyl)-1-nitrosourea]",520,200,13.2,4/6,> 460,15.2,170,3.01,6/6,> 700,56.4
"CCC(COC)O[C@H]1O[C@H](CN(CC(C)(C)C)C(=O)N(CCCl)N=O)[C@@H](O)[C@H](O)[C@H]1O (stereo partly drawn) [Compound 185, 3-neopentyl-3-(1-methoxy-2-n-butyl α-D-glucopyranose-6-yl)-1-(2-chloroethyl)-1-nitrosourea]",550,200,8.16,5/6,> 625,24.5,170,2.69,6/6,> 700,63.1
"COCCCO[C@H]1O[C@H](CN(CC(C)(C)C)C(=O)N(CCCl)N=O)[C@@H](O)[C@H](O)[C@H]1O [Compound 186, 3-neopentyl-3-(3-methoxy-n-propyl α-D-glucopyranose-6-yl)-1-(2-chloroethyl)-1-nitrosourea]",520,200,8.55,5/6,> 620,23.4,160,2.49,6/6,> 700,64.3
